Here are results for 7 compounds from patent publication US6653313B2, “1,4-dihydropyridine compounds as bradykinin antagonists” (Warner-Lambert Company LLC, priority 2000, dated 2003).

Structures can show the parent of a compound that is named as a salt.

As a reminder, the melting point is the temperature, or range, at which the solid turns liquid. As to `CNC(=O)CCC(=O)NCc1ccccc1CCC1=C(C(=O)OC)C(c2c(Cl)cccc2Cl)C(C(=O)OC)=C(CC(=O)N2CCN(C3CC4CCC(C3)N4C)CC2)N1` (stereo not shown) (as salt: citrate), the melting point was 158 to 160 °C (dec.).

For `COC(=O)C1=C(CCc2ccccc2COCCN2CCCC2)NC(CC(=O)N2CCN(C3CC4CCC(C3)N4C)CC2)=C(C(=O)OC)C1c1c(Cl)cccc1Cl.O=C(O)CCC(=O)O` (stereo not shown), the melting point is 168 °C (dec.).

With `COC(=O)C1=C(CCc2ccccc2NS(C)(=O)=O)NC(CC(=O)N2CCN(C3CC4CCC(C3)N4C)CC2)=C(C(=O)OC)C1c1c(Cl)cccc1Cl` (stereo not shown) (as salt: HCl), the melting point was 143 °C.

Take `CCN(CC)Cc1ccccc1CCC1=C(C(=O)OC)C(c2c(Cl)cccc2Cl)C(C(=O)OC)=C(CC(=O)N2CCN(C3CC4CCC(C3)N4C)CC2)N1` (stereo not shown) (as salt: HCl): the melting point was 77 to 79 °C (dec.).

For the compound `COC(=O)C1=C(CCc2ccccc2C(=O)N2CCNCC2)NC(CC(=O)N2CCN(C3CC4CCC(C3)N4C)CC2)=C(C(=O)OC)C1c1c(Cl)cccc1Cl` (stereo not shown) (as salt: HCl), the melting point was 198 to 200 °C (dec.).

For the compound `COC(=O)C1=C(CCc2ccccc2NS(=O)(=O)C(F)(F)F)NC(CC(=O)N2CCN(C3CC4CCC(C3)N4C)CC2)=C(C(=O)OC)C1c1c(Cl)cccc1Cl` (stereo not shown) (as salt: HCl), the melting point is 218 to 220 °C (dec.).

Compound `CCNCCOCc1ccccc1CCC1=C(C(=O)OC)C(c2c(Cl)cccc2Cl)C(C(=O)OC)=C(CC(=O)N2CCN(C34CCCC(CC3)N4C)CC2)N1` (stereo not shown) (as salt: citrate) returned a melting point of 151 °C.
